Reference: ChEMBL document CHEMBL1135096, “4-Aryl/cycloalkyl-5-phenyloxazole derivatives as selective COX-2 inhibitors” (Bioorg Med Chem Lett, 2002)
pIC50: −log10 of the molar value.

Legend:
[1] = target: T1, Prostaglandin G/H synthase 2 (Homo sapiens, UniProt P35354)
T1 sequence (P35354 whole entry): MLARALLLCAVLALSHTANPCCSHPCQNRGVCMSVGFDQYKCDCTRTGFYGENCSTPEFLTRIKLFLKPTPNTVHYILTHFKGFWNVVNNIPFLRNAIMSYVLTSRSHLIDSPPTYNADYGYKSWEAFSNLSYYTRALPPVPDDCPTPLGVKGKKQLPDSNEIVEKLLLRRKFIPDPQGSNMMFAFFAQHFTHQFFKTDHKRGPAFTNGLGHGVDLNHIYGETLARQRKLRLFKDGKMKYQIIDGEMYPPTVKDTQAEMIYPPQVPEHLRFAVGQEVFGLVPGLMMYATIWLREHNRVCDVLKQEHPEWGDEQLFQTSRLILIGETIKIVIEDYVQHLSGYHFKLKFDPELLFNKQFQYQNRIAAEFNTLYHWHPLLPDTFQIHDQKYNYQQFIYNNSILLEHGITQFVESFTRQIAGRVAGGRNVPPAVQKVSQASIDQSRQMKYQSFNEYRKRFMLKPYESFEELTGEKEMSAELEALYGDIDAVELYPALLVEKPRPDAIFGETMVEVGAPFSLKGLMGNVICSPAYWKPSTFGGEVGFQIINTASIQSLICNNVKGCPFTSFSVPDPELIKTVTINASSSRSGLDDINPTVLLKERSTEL
Description: In vitro inhibitory activity towards human recombinant Prostaglandin G/H synthase 2 enzyme

[2] = target: Prostaglandin G/H synthase 1 (Homo sapiens, UniProt P23219)
Sequence of Prostaglandin G/H synthase 1 (P23219 whole entry): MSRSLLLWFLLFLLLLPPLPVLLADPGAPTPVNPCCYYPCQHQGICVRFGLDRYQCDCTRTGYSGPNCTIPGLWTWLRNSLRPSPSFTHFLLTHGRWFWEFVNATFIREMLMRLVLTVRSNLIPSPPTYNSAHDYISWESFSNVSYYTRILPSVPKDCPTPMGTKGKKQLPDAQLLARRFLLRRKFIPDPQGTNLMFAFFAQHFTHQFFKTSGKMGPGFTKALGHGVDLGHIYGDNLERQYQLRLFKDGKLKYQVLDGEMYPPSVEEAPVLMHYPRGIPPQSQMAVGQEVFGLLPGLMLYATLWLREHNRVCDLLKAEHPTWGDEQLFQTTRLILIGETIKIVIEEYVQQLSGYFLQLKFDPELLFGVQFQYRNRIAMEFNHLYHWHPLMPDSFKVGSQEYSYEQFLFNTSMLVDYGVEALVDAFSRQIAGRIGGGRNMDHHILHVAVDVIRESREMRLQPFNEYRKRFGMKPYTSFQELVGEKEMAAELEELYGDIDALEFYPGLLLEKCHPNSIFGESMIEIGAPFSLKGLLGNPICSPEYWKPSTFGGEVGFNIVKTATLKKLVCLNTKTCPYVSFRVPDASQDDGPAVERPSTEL
Description: In vitro inhibitory activity towards human platelet recombinant Prostaglandin G/H synthase 1

Row | SMILES | pIC50 [1] | pIC50 [2]
1 | Cc1nc(-c2ccc(F)cc2)c(-c2ccc(S(N)(=O)=O)cc2)o1 | 7.62 | 5.33
2 | Cc1nc(C2CCCCC2)c(-c2ccc(S(C)(=O)=O)cc2)o1 | – | < 4.00
3 | CNS(=O)(=O)c1ccc(-c2oc(C)nc2C2CCCCC2)cc1 | 5.51 | < 4.00
4 | Cc1nc(C2CCCC2)c(-c2ccc(S(C)(=O)=O)cc2)o1 | 4.74 | < 4.00
5 | Cc1nc(-c2ccc(S(C)(=O)=O)cc2)c(-c2ccc(Cl)s2)o1 | – | 4.03
6 | CS(=O)(=O)c1ccc(-c2oc(-c3ccccc3)nc2C2CCCCC2)cc1 | < 4.00 | < 4.00
7 | CCc1nc(C2CCCCC2)c(-c2ccc(S(C)(=O)=O)cc2)o1 | 6.57 | 4.22
8 | Cc1nc(C2CCCCCC2)c(-c2ccc(S(C)(=O)=O)cc2)o1 | – | < 4.00
9 | Cc1nc(C2CCCCC2)c(-c2ccc(S(N)(=O)=O)cc2)o1 | – | 4.32

The next lines start with the values.

Row | pIC50 [1] | pIC50 [2] | SMILES
10 | 5.68 | < 4.00 | Cc1nc(-c2ccc(S(C)(=O)=O)cc2)c(-c2ccc(F)cc2)o1
11 | 7.05 | < 4.00 | Cc1nc(-c2ccccc2)c(-c2ccc(S(C)(=O)=O)cc2)o1
12 | 4.42 | < 4.00 | CCS(=O)(=O)c1ccc(-c2oc(C)nc2-c2ccc(F)cc2)cc1
13 | 7.15 | 4.38 | Cc1nc(-c2ccc(F)cc2)c(-c2ccc(S(C)(=O)=O)cc2)o1
14 | 6.85 | < 4.00 | CCc1ccc(-c2nc(C)oc2-c2ccc(S(C)(=O)=O)cc2)s1
